{
  "source": "ChEMBL document CHEMBL3046191",
  "about": "“Strong resistance to phosphine in the rusty grain beetle, Cryptolestes ferrugineus (Stephens) (Coleoptera: Laemophloeidae): its characterisation, a rapid assay for diagnosis and its distribution in Australia” (2013)",
  "key": {"Cryptolestes ferrugineus [1]": {"tested_on": "Cryptolestes ferrugineus", "assay": "whole plant or invertebrate", "settings": "QNCF134, 144 h", "description": "Insecticidal activity against strongly phosphine-resistant Cryptolestes ferrugineus (rusty grain beetle) QNCF134 after 144 hr by FAO method"}, "Cryptolestes ferrugineus [2]": {"tested_on": "Cryptolestes ferrugineus", "assay": "whole plant or invertebrate", "settings": "QNCF110, 144 h", "description": "Insecticidal activity against strongly phosphine-resistant Cryptolestes ferrugineus (rusty grain beetle) QNCF110 after 144 hr by FAO method"}, "Cryptolestes ferrugineus [3]": {"tested_on": "Cryptolestes ferrugineus", "assay": "Insecticidal activity against Cryptolestes ferrugineus (rusty grain beetle) Lab-S after 72 hr by FAO method"}, "Cryptolestes ferrugineus [4]": {"tested_on": "Cryptolestes ferrugineus", "assay": "whole plant or invertebrate", "settings": "QNCF83, 144 h", "description": "Insecticidal activity against strongly phosphine-resistant Cryptolestes ferrugineus (rusty grain beetle) QNCF83 after 144 hr by FAO method"}, "Cryptolestes ferrugineus [5]": {"tested_on": "Cryptolestes ferrugineus", "assay": "whole plant or invertebrate", "settings": "Lab-S, 144 h", "description": "Insecticidal activity against Cryptolestes ferrugineus (rusty grain beetle) Lab-S after 144 hr by FAO method"}, "Cryptolestes ferrugineus [6]": {"tested_on": "Cryptolestes ferrugineus", "assay": "Insecticidal activity against Cryptolestes ferrugineus (rusty grain beetle) Lab-S after 48 hr by FAO method"}, "Cryptolestes ferrugineus [7]": {"tested_on": "Cryptolestes ferrugineus", "assay": "whole plant or invertebrate", "settings": "QNCF129, 144 h", "description": "Insecticidal activity against strongly phosphine-resistant Cryptolestes ferrugineus (rusty grain beetle) QNCF129 after 144 hr by FAO method"}, "Cryptolestes ferrugineus [8]": {"tested_on": "Cryptolestes ferrugineus", "assay": "whole plant or invertebrate", "settings": "QNCF101, 144 h", "description": "Insecticidal activity against strongly phosphine-resistant Cryptolestes ferrugineus (rusty grain beetle) QNCF101 after 144 hr by FAO method"}, "Cryptolestes ferrugineus [9]": {"tested_on": "Cryptolestes ferrugineus", "assay": "whole plant or invertebrate", "settings": "QNCF104, 144 h", "description": "Insecticidal activity against strongly phosphine-resistant Cryptolestes ferrugineus (rusty grain beetle) QNCF104 after 144 hr by FAO method"}, "Cryptolestes ferrugineus [10]": {"tested_on": "Cryptolestes ferrugineus", "assay": "whole plant or invertebrate", "settings": "QNCF102, 144 h", "description": "Insecticidal activity against strongly phosphine-resistant Cryptolestes ferrugineus (rusty grain beetle) QNCF102 after 144 hr by FAO method"}, "Cryptolestes ferrugineus [11]": {"tested_on": "Cryptolestes ferrugineus", "assay": "whole plant or invertebrate", "settings": "Lab-StR, 144 h", "description": "Insecticidal activity against phosphine-resistant Cryptolestes ferrugineus (rusty grain beetle) Lab-StR after 144 hr by FAO method"}, "Cryptolestes ferrugineus [12]": {"tested_on": "Cryptolestes ferrugineus", "assay": "whole plant or invertebrate", "settings": "QNCF122, 144 h", "description": "Insecticidal activity against strongly phosphine-resistant Cryptolestes ferrugineus (rusty grain beetle) QNCF122 after 144 hr by FAO method"}, "Cryptolestes ferrugineus [13]": {"tested_on": "Cryptolestes ferrugineus", "assay": "Insecticidal activity against phosphine-resistant Cryptolestes ferrugineus (rusty grain beetle) Lab-StR after 48 hr by FAO method"}, "Cryptolestes ferrugineus [14]": {"tested_on": "Cryptolestes ferrugineus", "assay": "whole plant or invertebrate", "settings": "Lab-WR, 144 h", "description": "Insecticidal activity against phosphine-weakly resistant Cryptolestes ferrugineus (rusty grain beetle) Lab-WR after 144 hr by FAO method"}, "Cryptolestes ferrugineus [15]": {"tested_on": "Cryptolestes ferrugineus", "assay": "whole plant or invertebrate", "settings": "QQCF691, 144 h", "description": "Insecticidal activity against strongly phosphine-resistant Cryptolestes ferrugineus (rusty grain beetle) QQCF691 after 144 hr by FAO method"}, "Cryptolestes ferrugineus [16]": {"tested_on": "Cryptolestes ferrugineus", "assay": "whole plant or invertebrate", "settings": "QNCF130, 144 h", "description": "Insecticidal activity against strongly phosphine-resistant Cryptolestes ferrugineus (rusty grain beetle) QNCF130 after 144 hr by FAO method"}, "Cryptolestes ferrugineus [17]": {"tested_on": "Cryptolestes ferrugineus", "assay": "Insecticidal activity against phosphine-weakly resistant Cryptolestes ferrugineus (rusty grain beetle) Lab-WR after 72 hr by FAO method"}, "Cryptolestes ferrugineus [18]": {"tested_on": "Cryptolestes ferrugineus", "assay": "Insecticidal activity against phosphine-weakly resistant Cryptolestes ferrugineus (rusty grain beetle) Lab-WR after 48 hr by FAO method"}, "Cryptolestes ferrugineus [19]": {"tested_on": "Cryptolestes ferrugineus", "assay": "Insecticidal activity against phosphine-resistant Cryptolestes ferrugineus (rusty grain beetle) Lab-StR after 72 hr by FAO method"}},
  "data": [
    {"smiles": "P", "note": "[PHOSPHINE]", "values": [
      {"measurement": "LC50", "setting": "Cryptolestes ferrugineus [1]", "value": 1.22, "unit": "µg/mL"},
      {"measurement": "LC50", "setting": "Cryptolestes ferrugineus [2]", "value": 0.97, "unit": "µg/mL"},
      {"measurement": "LC50", "setting": "Cryptolestes ferrugineus [3]", "value": 0.004, "unit": "µg/mL"},
      {"measurement": "LC50", "setting": "Cryptolestes ferrugineus [4]", "value": 1.3, "unit": "µg/mL"},
      {"measurement": "LC50", "setting": "Cryptolestes ferrugineus [5]", "value": 0.003, "unit": "µg/mL"},
      {"measurement": "LC50", "setting": "Cryptolestes ferrugineus [6]", "value": 0.005, "unit": "µg/mL"},
      {"measurement": "LC50", "setting": "Cryptolestes ferrugineus [7]", "value": 1.5, "unit": "µg/mL"},
      {"measurement": "LC50", "setting": "Cryptolestes ferrugineus [8]", "value": 1.12, "unit": "µg/mL"},
      {"measurement": "LC50", "setting": "Cryptolestes ferrugineus [9]", "value": 1.21, "unit": "µg/mL"},
      {"measurement": "LC50", "setting": "Cryptolestes ferrugineus [10]", "value": 1.31, "unit": "µg/mL"},
      {"measurement": "LC50", "setting": "Cryptolestes ferrugineus [11]", "value": 1.66, "unit": "µg/mL"},
      {"measurement": "LC50", "setting": "Cryptolestes ferrugineus [12]", "value": 1.77, "unit": "µg/mL"},
      {"measurement": "LC50", "setting": "Cryptolestes ferrugineus [13]", "value": 6.57, "unit": "µg/mL"},
      {"measurement": "LC50", "setting": "Cryptolestes ferrugineus [14]", "value": 0.022, "unit": "µg/mL"},
      {"measurement": "LC50", "setting": "Cryptolestes ferrugineus [15]", "value": 1.34, "unit": "µg/mL"},
      {"measurement": "LC50", "setting": "Cryptolestes ferrugineus [16]", "value": 1.42, "unit": "µg/mL"},
      {"measurement": "LC50", "setting": "Cryptolestes ferrugineus [17]", "value": 0.037, "unit": "µg/mL"},
      {"measurement": "LC50", "setting": "Cryptolestes ferrugineus [18]", "value": 0.056, "unit": "µg/mL"},
      {"measurement": "LC50", "setting": "Cryptolestes ferrugineus [19]", "value": 6.37, "unit": "µg/mL"}
    ]}
  ]
}
